Laboratory results from US20150211005A1, “MIRNA MODULATORS OF THERMOGENESIS” (APTAMIR THERAPEUTICS, INC., priority 2012, published 2015).

Assays:
UCP1 = assay: RNA-Seq mRNA expression during pre-adipocyte differentiation: UCP1; type: cell-based, human; settings: pre-adipocytes, 12 days, rosiglitazone 100 nM renewed every other day, miRNA analogs 25 nM, one transfection
Protocol: (§1) In order to assess the effect of miRNA analogs on human pre-adipocytes differentiation into mature adipocytes, human subcutaneous pre-adipocytes (SuperLot 0048 from 8 female donors, ZenBio, NC) were plated on Day 0 into 96-well plates and allowed to attach overnight in preadipocyte medium (DMEM/Ham's F-12 (1:1, v/v), HEPES buffer, Fetal bovine serum and Antibiotics). […] All treatments were in triplicate. Post transfection, the negative control was maintenance medium only and the positive control was maintenance medium with 100 nM of the PPARG agonist rosiglitazone. After 2 days, medium was removed and replaced with fresh maintenance medium. The maintenance medium then changed every two days until the end of the treatment period (Day 15). At the end of the treatment (total of 15 days in culture) cells were processed for Phenotyping and Genotyping Screening.
(§2) Profiling of mRNA changes occurring during the differentiation of human pre-adipocyte into mature adipocyte induced by rosiglitazone or miRNA analogs was performed by RNA-Seq technology. […]
(§3) Changes in mRNA expression of UCP1, 2 and 3 were also measured in the presence of rosiglitazone or miRNA analogs, as shown below in Table 18.

UCP3 = assay: RNA-Seq mRNA expression during pre-adipocyte differentiation: UCP3; type: cell-based, human; settings: pre-adipocytes, 12 days, rosiglitazone 100 nM renewed every other day, miRNA analogs 25 nM, one transfection
Protocol: as §1, §2, §3

[1] = system: human subcutaneous adipocytes; assay: Phenotypic changes of mature adipocytes cultured two weeks, bright field microscopy; type: cell-based; settings: day 28; for Average size of lipid droplet: change versus control (Ref); for Average size of lipid droplet / Picture field covered by adipocytes (% of control) / Cell area occupied by lipid droplets (%) / Number of lipid droplet per cell: 50 nM miRNA analogs, 10 μM CL316,243, 10 nM T3, 100 nM Rosiglitazone; for Picture field covered by adipocytes (% of control): Dharmafect 4; for Cell area occupied by lipid droplets (%): control 42%; for Number of lipid droplet per cell: control 68
Protocol: Human subcutaneous adipocytes were plated in 6-well plates at a density of 391,000 cells per well as described above. Using Dharmafect 4, these adipocytes were transfected at Day 14 with:
1. […] A negative control (mock transfection) 3.
At day 17, the cells were switched to maintenance medium, which was then changed every two-three days until day 28 when bright field microscopy pictures of the cells were taken.

Row | SMILES | mRNA Expression changes UCP1 (UCP1) [log ratios] | mRNA Expression changes UCP3 (UCP3) [log ratios] | Average size of lipid droplet [1] [%] | Picture field covered by adipocytes (% of control) [1] | Cell area occupied by lipid droplets (%) [1] [%] | Number of lipid droplet per cell [1] | cell density and browning appearance (bright field, FIG. 22) ([1]; in reference to the control condition)
1 | CN(CCOc1ccc(CC2SC(=O)NC2=O)cc1)c1ccccn1 (centres unmarked) [Rosiglitazone] | 15.70 | 0.26 | −19 | +198% of control | 57 | 113 | 
2 | C[C@H](Cc1ccc2c(c1)OC(C(=O)[O-])(C(=O)[O-])O2)NC[C@H](O)c1cccc(Cl)c1.[Na+].[Na+] [CL316,243] |  |  | −44 | +24% of control | 44 | 124 | increase in cell density and “browning” appearance
